pIC50, pKi: −log10 of the molar value. Where a SMILES comes first, the peptide text is derived from it. The star is where a group is joined. Cbz = O=C(OCc1ccccc1)*
Legend:
[1] = molecular target: SDS-activated 20S proteasome from rabbit muscle (Oryctolagus cuniculus, UniProt G1SU71+G1T4Q9); experiment: Kinetic assay: inhibition of the 20S proteasome; type: biochemical
Method: (§1) P, AA^1, AA^2, AA^3, and Z^1 and Z^2 represent the structures present on formula (1) or (2). The protocol for the kinetic assay described in Tables II-V is as described in Rock et al., Cell 78:761-771 (1994). In these tables, Ki values are reported, which are dissociation constants for the equilibrium that is established when enzyme and inhibitor interact to form the enzyme:inhibitor complex. The reactions were performed using SDS-activated 20S proteasome from rabbit muscle. The substrate used was Suc-LLVY-AMC.

[2] = test system: C2C12 cells; experiment: Inhibition of protein degradation in C2C12 cells; type: cell-based, mouse; conditions: 35S-methionine labelled cells, percent decrease in TCA soluble radioactivity, media with 50% serum
Method: One approach to testing drug candidates for their ability to inhibit the ATP-ubiquitin-dependent degradative process is to measure proteolysis in cultured cells (Rock, et al., Cell 78:761 (1994)). For example, the degradation of long-lived intracellular proteins can be measured in mouse C2C12 myoblast cells. Cells are incubated with ^35S-methionine for 48 hours to label long-lived proteins and then chased for 2 hours with medium containing unlabeled methionine. After the chase period, the cells are incubated for 4 hours in the presence or absence of the test compound. The amount of protein degradation in the cell can be measured by quantitating the trichloroacetic acid soluble radioactivity released from the pre-labeled proteins into the growth medium (an indicator of intracellular proteolysis).
C2C12 cells (a mouse myoblast line) were labelled for 48 hrs with ^35S-methionine. The cells were then washed and preincubated for 2 hrs in the same media supplemented with 2 mM unlabelled methionine. The media was removed and replaced with a fresh aliquot of the preincubation media containing 50% serum, and a concentration of the compound to be tested. The media was then removed and made up to 10% TCA and centrifuged. The TCA soluble radioactivity was counted. Inhibition of proteolysis was calculated as the percent decrease in TCA soluble radioactivity.

[3] = molecular target: Cathepsin B (Homo sapiens, UniProt P07858); experiment: Kinetic assay: inhibition of Cathepsin B; type: biochemical; conditions: Table IV
Source text: [Worded in the source for another target; this target is reported under the same test.] as §1, with “Table II summarizes results from kinetic experiments that measured the inhibition of the 20S proteasome by compounds having the formula of compound (1) or (2). P,” for “P,”

[4] = test system: mice; experiment: DTH response (contact sensitivity, ear swelling) in mice; type: in vivo, mouse; conditions: oral, dose 3 mg/kg, ear swelling approximately 18 hours after challenge
Source text: Compounds can also be tested for their ability to inhibit a delayed-type hypersensitivity response in mice. Contact hypersensitivity is a manifestation of an in vivo T-cell mediated immune response (Friedmann, Curr. Opinion Immunology, 1:690693 (1989)). Although the exact molecular mechanisms that regulate the cellular interactions and vascular changes involved in the response remain obscure, it is clear that the process is dependent upon the interplay of soluble mediators, adhesion molecules, and the cytokine network (Piguet, et al., J. Exp. Med. 173:673-679 (1991); Nickoloff, et al. J. Invest. Dermatol. 94:151S-157S (1990)). NF-κB, by mediating events such as the production of cytokines and the induction and utilization of cell-surface adhesion molecules, is a central and coordinating regulator involved in immune responses.
Naive nice were sensitized by the application of 20 μL of a 0.5% (v/v) solution of 2,4-dinitrofluorobenzene in 4:1 acetone/olive oil to both of the rear limb footpads. This procedure is performed on two consecutive days, which are referred to as days 0 and 1.
The efferent phase of the contact sensitivity response was elicited on day 5 by the application of 10 μL of a 0.2% (v/v) solution of 2,4-dinitrofluorobenzene in 4:1 acetone/olive oil to both sides of the left ear. The contralateral control ear was treated on both sides with 10 μL of vehicle only. The mice were lightly anaesthetized for this procedure by the intraperitoneal (i.p.) injection of a mixture of ketamine.(80 mg/kg, Henry Schein) and xylazine (16 mg/kg, Henry Schein). […]
Approximately 18 hours after the challenge, ear swelling was determined by measuring both the control and the experimental ear using a Mitutoyo Digital micrometer. The absolute difference in thickness of the experimental (left) ears vs. the control (right) ears was determined for each treatment group. Efficacy was determined by comparing this difference in thickness to the difference calculated for the vehicle control group.

[5] = molecular target: T1, Cathepsin G (Homo sapiens, UniProt P08311); experiment: Kinetic assay: inhibition of Cathepsin G; type: biochemical; conditions: Table V
T1 sequence (P08311 21-244): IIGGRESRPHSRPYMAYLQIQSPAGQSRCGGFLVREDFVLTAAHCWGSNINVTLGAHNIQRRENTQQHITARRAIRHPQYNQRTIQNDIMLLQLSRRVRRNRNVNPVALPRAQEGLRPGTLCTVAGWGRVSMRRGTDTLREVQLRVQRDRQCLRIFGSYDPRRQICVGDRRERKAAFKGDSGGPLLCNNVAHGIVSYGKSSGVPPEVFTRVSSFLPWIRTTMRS

[6] = molecular target: T2, Human Leukocyte Elastase (Homo sapiens, UniProt P08246); experiment: Kinetic assay: inhibition of Human Leukocyte Elastase; type: biochemical; conditions: Table V
T2 sequence (P08246 30-267): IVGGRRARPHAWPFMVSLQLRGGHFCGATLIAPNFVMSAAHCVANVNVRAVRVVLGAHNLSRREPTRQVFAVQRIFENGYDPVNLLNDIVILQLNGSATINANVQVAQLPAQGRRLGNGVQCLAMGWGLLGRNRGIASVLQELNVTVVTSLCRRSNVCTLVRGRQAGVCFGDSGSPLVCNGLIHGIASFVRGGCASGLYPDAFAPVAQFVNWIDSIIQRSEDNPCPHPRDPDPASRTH

[7] = Table II, SDS-activated 20S proteasome from rabbit muscle, substrate Suc-LLVY-AMC

Compound | pKi [1, 7] | pIC50 [2] | pIC50 ([2]; Mus musculus, C2C12) | other results
β-(1-Naphthyl)-L-alanine-L-leucine Boronic Acid [MG-303] | 8.41 | 6.47 | – | –
CC(C)CC(C=O)NC(=O)C(CC(C)C)NC(=O)C(Cc1c[nH]c2ccccc12)NC(=O)OCc1ccccc1 (stereo not drawn) [MG-191, reference compound] (Cbz-Trp-Leu-Leu-aldehyde; configuration not given here) | – | – | – | pKi [3]: 9.27; pKi ([1]; Table IV): 9.42
CC(C)C[C@H](NC(=O)[C@H](CC(C)C)NC(=O)[C@H](CC(C)C)NC(=O)N1CCOCC1)B(O)O [MG-278] | 9.85 | – | 5.12 | –
CC(C)C[C@H](NC(=O)[C@H](Cc1ccc2ccccc2n1)NC(=O)N1CCOCC1)B(O)O [MG-315, N-(4-Morpholine)carbonyl-β-(2-quinolyl)-L-alanine-L-leucine Boronic Acid] | 8.66 | – | 6.47 | –
CC(C)C[C@H](NC(=O)[C@H](Cc1cccnc1)NS(C)(=O)=O)B(O)O [MG-289] | 8.20 | 4.97 | – | –
CC(C)C[C@H](NC(=O)[C@H](Cc1cccc2ccccc12)NC(=O)c1ccc2ccccc2n1)B(O)O [MG-298] | 10.12 | 6.64 | – | –
CC(C)C[C@H](NC(=O)[C@H](Cc1cccc2ccccc12)NC(=O)N1CCOCC1)B(O)O [MG-273, N-(4-Morpholine)carbonyl-β-(1-naphthyl)-L-alanine-L-leucine Boronic Acid] | 9.74 | – | 6.85 | pKi [3]: 3.70; pKi ([1]; Table IV): 9.74
CC(C)C[C@H](NC(=O)[C@H](Cc1ccccc1)NC(=O)c1cnccn1)B(O)O [MG-341, N-(2-pyrazine)carbonyl-L-phenylalanine-L-leucine boronic acid] | – | – | 7.16 | pKi [3]: 3.80; % Inhibition of the DTH response [4]: 90%
CC(=O)N[C@@H](CC(C)C)C(=O)N[C@@H](CC(C)C)C(=O)N[C@H](C=O)CC(C)C [MG-154, reference compound] (Ac-Leu-Leu-Leu-aldehyde) | – | – | – | pKi [3]: 8.30; pKi ([1]; Table IV): 7.18
CC(C)C[C@H](NC(=O)[C@H](Cc1cccc2ccccc12)NC(=O)c1cnc2ccccc2n1)B(O)O [MG-299] | 9.85 | 6.55 | – | –
CC(=O)N[C@@H](Cc1cccnc1)C(=O)N[C@@H](CC(C)C)B(O)O [MG-290] | 8.27 | 4.99 | – | –
β-(1-Naphthyl)-L-alanine-L-leucine Boronic Acid Hydrochloride Salt [MG-302] | 8.12 | 6.57 | – | –
CC(C)C[C@H](NC(=O)[C@H](Cc1ccccn1)NC(=O)N1CCOCC1)B(O)O [MG-312] | 8.20 | 5.96 | – | –
CC(C)C[C@H](NC(=O)[C@H](Cc1ccccc1)NC(=O)NCc1ccccc1)B(O)O [MG-350] | 9.85 | 6.80 | – | –
CC(C)C[C@H](NC(=O)[C@H](Cc1cccc2ccccc12)NC(=O)OCc1ccccc1)B(O)O [MG-270] | 10.08 | 6.14 | – | –
CC(C)CC(NC(=O)C(Cc1ccc2ncccc2c1)NC(=O)N1CCOCC1)B(O)O [MG-292, N-(4-Morpholine)carbonyl-β-(6-quinolinyl)-D, L-alanine-L-leucine Boronic Acid] | 8.22 | – | 4.95 | –
CN[C@@H](Cc1cccc2ccccc12)C(=O)N[C@@H](CC(C)C)B(O)O [MG-333] | 8.68 | – | 6.66 | –
CC(C)C[C@H](NC(=O)[C@H](Cc1ccccc1)NC(=O)N1CCOCC1)B(O)O [MG-309, N-(4-morpholine)carbonyl-L-phenylalanine-L-leucine boronic acid] | 9.09 | – | 6.68 | pKi [5]: 5.32; pKi [3]: 3.88; % Inhibition of the DTH response [4]: 40%; pKi ([1]; Table IV): 9.09; pKi ([1]; Table V): 9.09; pKi [6]: 5.15
CC(C)C[C@H](NC(=O)[C@H](Cc1ccccn1)NS(=O)(=O)c1cccc2cccnc12)B(O)O [MG-347] | 7.54 | 4.89 | – | –
CC(C)C[C@H](NC(=O)[C@H](Cc1cccc2ccccc12)NC(=O)N1CCOCC1)B1OCCNCCO1 [MG-286, Diethanolamine N-(4-Morpholine)carbonyl-β-(1-naphthyl)-L-alanine-L-leucine Boronate] | 9.82 | – | 7.02 | –
CC(C)C[C@H](NC(=O)[C@H](Cc1ccccc1)NC(=O)c1ccccn1)B(O)O [MG-343] | 9.38 | 7.24 | – | –
CC(C)CC(NC(=O)C(CCc1ccccc1)NC(=O)N1CCOCC1)B(O)O (centres unmarked) [MG-322] | 8.66 | 6.42 | – | –
CC(C)C[C@H](NC(=O)[C@H](Cc1ccc(O)cc1)NC(=O)N1CCOCC1)B(O)O [MG-307, N-(4-morpholine)carbonyl-L-tyrosine-L-leucine boronic acid] | 9.29 | 5.32 | – | –
CC(=O)N[C@@H](CC(C)C)C(=O)N[C@@H](CC(C)C)C(=O)N[C@@H](CC(C)C)B(O)O [MG-283] | 9.34 | – | 5.52 | –
N-Cbz-L-Leucine-L-leucine Boronic Acid [MG-274] | 8.52 | 6.47 | – | pKi ([1]; Table III, dipeptide boronic acid vs dipeptide aldehyde): 8.52
CC(C)C[C@H](NC(=O)[C@H](Cc1c[nH]c2ccccc12)NC(=O)N1CCOCC1)B(O)O [MG-285] | 8.52 | 5.62 | – | –
CC(C)C[C@H](NC(=O)[C@H](Cc1ccccn1)NC(=O)c1ccccc1)B(O)O [MG-345] | 9.12 | 6.92 | – | –
CC(C)C[C@H](NC(=O)[C@H](Cc1cccc2ccccc12)NC(=O)c1ccccc1)B(O)O [MG-328] | 10.06 | 7.16 | – | –
CC(=O)N[C@@H](Cc1c[nH]c2ccccc12)C(=O)N[C@@H](CC(C)C)B(O)O [MG-301] | 8.89 | 5.89 | – | –
